Measured values published in paper PMC5581131, “The novel sphingosine-1-phosphate receptors antagonist AD2900 affects lymphocyte activation and inhibits T-cell entry into the lymph nodes” (Oncotarget, 2017).

Assays:
C57BL/6 mice [1] = test: CCR7-positive T-cell population in vivo, FACS; design: species or system mouse
Description: (§1) The S1P gradient is a crucial factor for lymphocytes to egress from lymphoid tissues and re-enter the circulation. […] To identify whether the effect of AD2900 on T-cell localization may be mediated by an influence on S1P1 and CCR7 expression, we tested the percentage of S1P1- and CCR7-positive T-cell populations in the blood, spleen, and lymph node in each mouse after a 2-day treatment with AD2900. The percentage of cells expressing S1P1 or CCR7 on their cell surface was detected by FACS analysis and was calculated as % of expressing population in non-treated animals. […] AD2900 elevates the S1P1-expressing population in the blood and spleen, whereas it reduces this population in the lymph nodes. […] In the lymph nodes, the […] population was not affected by AD2900 treatment (Figure 7F).
(§2) Figure 7 The influence of AD2900 on S1P1- and CCR7-positive T-cell populations in blood, spleen, and peripheral lymph nodes C57BL/6 mice were orally administered with 1.8, 2.7, and 3.6 mg/l AD2900 or 1.8 mg/l FTY720 for 2 days, as shown in Figure 4. Leukocytes from blood, spleen, and pLNs were collected and stained with CD3e and S1P1 or CCR7 fluorescent antibodies and then analyzed by FACS analysis. The percentages of S1P1+ CD3e+ T cells from blood (A), spleen (B), and pLNs (C) are shown. The percentages of CCR7+ CD3e+ T cells from blood (D), spleen (E), and pLNs (F) are shown. All the significances are compared to untreated healthy mice. Results summarize at least three independent experiments. Results of Student’s t-test:*(P < 0.05, two-tailed test), ** (P < 0.01, two-tailed test), *** (P < 0.001, two-tailed test), **** (P < 0.0001, two-tailed test).
Murine lymphocytes: The phenotype of murine lymphocytes was analyzed by flow cytometry using anti-CD3e-FITC, anti-CD19-PB, anti-CCR7-APC, anti-CD44-FITC, anti-CD62L-APC, and anti-TCR-β-PB (Biolegend, CA, USA).
(§3) C57BL/6 female mice aged 7–8 weeks were obtained from Harlan Laboratories (Jerusalem, Israel). The animal study was conducted under appropriate conditions and was approved by the Institutional Animal Care and Use Committee of the Hebrew University of Jerusalem in accordance with the national laws and regulations for the protection of animals. AD2900 was dissolved in 10% BSA (MP Biomedicals, CA, USA) in DDW at 1 mg/ml and then further diluted in 200 ml water to get final concentrations at 1.8, 2.7, or 3.6 mg/l. AD2900 and FTY720 were supplied ad libitum to the mice for 2 days or 7 days. At the end of the experiment, blood was collected, and the mice were sacrificed and tissues (lymph nodes and spleen) were harvested.

C57BL/6 mice [2] = test: S1P1-positive T-cell population in vivo, FACS; design: species or system mouse; settings: for increase of S1P1-positive T cells in the blood, of normal expression levels / increase of S1P1 population, spleen T cells / decrease of S1P1 population in the lymph nodes: 2-day treatment
Description: as §1, §2, §3

C57BL/6J female mice = test: Leukocyte counts in thymus, blood, spleen and lymph nodes after oral administration in drinking water; assay type: in vivo, mouse; settings: 1.8 mg/l in drinking water
Protocol: Next, 7- to 8-week-old C57BL/6J female mice were orally administered with AD2900 mixed in drinking water in different dosages (1.8, 2.7, or 3.6 mg/l) for 2 days (Figure 4A) or 7 days (Figure 4B); FTY720 was used as a positive control. In the 7-day experiment, the water was replaced on Day 3 with fresh water containing the same concentration of analog. At the end of the experiment, blood, spleen, inguinal lymph nodes, and thymus were obtained from each animal and the number of leukocytes was evaluated.
Figure 4 AD2900 treatment alters the distribution of leukocytes in the thymus, blood, spleen, and peripheral lymph nodes in mice C57BL/6 female mice were orally administered with 1.8 mg/l AD2900 in their drinking water for 2 days (A) or 7 days (B), and FTY720 (1.8 mg/l) was used as a positive control. Leukocytes from the thymus, blood, spleen, and peripheral lymph nodes (pLNs) were collected and counted. All the significances are compared to untreated healthy mice. Results summarize four independent experiments in figure (A) and two independent experiments in figure (B). n = 4–7 mice per group in each experiment. Results of Student’s t-test:*(P < 0.05, two-tailed test), ** (P < 0.01, two-tailed test), *** (P < 0.001, two-tailed test), **** (P < 0.0001, two-tailed test).
as §3
Murine blood samples, collected in tubes coated with EDTA (Grelner bio-one, Germany), were counted by a Mindray veterinary hematology Analyzer (Mindray, China). Single cell suspensions of lymph nodes and spleen were made in 1.5 ml of PBS. Cell counts were determined from these suspensions, yielding results in thousands of cells per microliter (μl).

SMILES	decrease of CCR7-positive T cells in the blood, of the normal expression levels (C57BL/6 mice [1]; 1.8 mg/l, 2-day treatment)	decrease of CCR7-positive T cells in the blood, of the normal expression levels (C57BL/6 mice [1]; 2.7 mg/l, 2-day treatment)	decrease of the S1P1 population, spleen T cells (Figure 7E) (C57BL/6 mice [1]; 3.6 mg/l (highest dose), 2-day treatment)	S1P1 population in the lymph nodes (Figure 7F) (C57BL/6 mice [1]; 2-day treatment)	increase of S1P1-positive T cells in the blood, of normal expression levels (C57BL/6 mice [2]; 1.8 mg/l)	increase of S1P1 population, spleen T cells (C57BL/6 mice [2]; 1.8 mg/l)	decrease of S1P1 population in the lymph nodes (C57BL/6 mice [2]; 2.7 mg/l)	increase of S1P1-positive T cells in the blood, of normal expression levels (C57BL/6 mice [2]; 2.7 mg/l)	increase of S1P1 population, spleen T cells (C57BL/6 mice [2]; 2.7 mg/l)	decrease of S1P1 population in the lymph nodes (C57BL/6 mice [2]; 3.6 mg/l)	increase of S1P1-positive T cells in the blood, of normal expression levels (C57BL/6 mice [2]; 3.6 mg/l)	increase of splenocyte counts (C57BL/6J female mice; 2-day treatment)	increase of thymus WBC count (C57BL/6J female mice; 2-day treatment)	increase of mice WBC count (C57BL/6J female mice; 7-day treatment)	increase of splenocyte counts (C57BL/6J female mice; 7-day treatment)	reduction of the number of leukocytes in the lymph nodes, of that of the control (C57BL/6J female mice; 7-day treatment)	reduction of the CCR7 population in murine blood, spleen, and lymph nodes (C57BL/6 mice [1]; 1.8 mg/l, 2 days)	effects on the S1P1 population in murine blood, spleen, and lymph nodes (C57BL/6 mice [2]; 1.8 mg/l, 2 days)	lymph node leukocyte count (C57BL/6J female mice; 2-day and 7-day treatments)	WBC and splenocyte counts (C57BL/6J female mice; both 2-day and 7-day treatments)
CCCCCCCCCCCCCCCCNC(CO)(CO)CO [AD2900]	21% ± 5%	15% ± 4%	12% ± 4%	not affected	20% ± 4%	12% ± 5%	12% ± 3%	16% ± 5%	31% ± 5%	18% ± 11%	18% ± 4%	33% ± 9%	25% ± 8.2%	23% ± 7%	20% ± 7%	18% ± 4%				
CCCCCCCCc1ccc(CCC(N)(CO)CO)cc1 [FTY720, Fingolimod, reference compound]																	15%–20%	did not demonstrate any effects	only minor effects	dramatically reduced
